Data reported in article PMC9144581, “In Vitro Anti-Proliferative, and Kinase Inhibitory Activity of Phenanthroindolizidine Alkaloids Isolated from Tylophora indica” (Plants, 2022).
Like-named read-outs stand apart in the source and are kept apart here.

Legend:
Aurora-A = molecular target: T1, Aurora-A (Homo sapiens, UniProt O14965); test: Radiometric protein kinase assay, Aurora-A; type: biochemical
T1 construct: purchased Sigma-Aldrich
T1 sequence (O14965 1-403): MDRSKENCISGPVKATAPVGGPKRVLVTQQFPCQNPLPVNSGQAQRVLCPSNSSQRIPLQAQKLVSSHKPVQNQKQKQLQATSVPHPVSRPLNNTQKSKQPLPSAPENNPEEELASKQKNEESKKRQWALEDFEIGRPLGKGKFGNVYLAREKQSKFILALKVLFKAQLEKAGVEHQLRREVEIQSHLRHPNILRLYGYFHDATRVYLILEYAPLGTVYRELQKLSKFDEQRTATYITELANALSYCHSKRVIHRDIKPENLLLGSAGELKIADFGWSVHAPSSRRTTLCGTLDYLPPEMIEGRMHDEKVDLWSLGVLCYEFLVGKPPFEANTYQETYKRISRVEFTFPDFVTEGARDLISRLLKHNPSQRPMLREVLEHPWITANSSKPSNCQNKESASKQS
Protocol: (§1) The radiometric protein kinase assays (RPKA) were used to investigate the kinase inhibitory effects of the isolated compounds. The method was dependent on the incorporation of radioactive ^33P isotope with ATP, and the percentage of phosphorylation was determined using the microplate-scintillation counter (Microbeta, Wallac, Finland) method. The half-maximal inhibitory concentration (IC50) values of compounds were measured by a microplate-scintillation counter. The control mixture (without peptide substrate) measures endogenous phosphorylation of proteins in the Protein Kinase Sample by-^33P-ATP. The purified protein kinases were used as positive controls for the assay (Sigma-Aldrich, St. Louis, MO, USA).

MCF-7 = test: MTT anti-proliferative assay, MCF-7; type: cell-based; conditions: read-out: IC50 ± SD, MCF-7
Protocol: (§2) The cells proliferations were determined by MTT [3-(4,5-dimethylthiazol-2-yl)-2,5-diphenyltetrazolium bromide] assays, wherein MTT color intensity was directly associated with the number of healthy, living cells. The three cancer cell lines, i.e., MCF-7, Michigan Cancer Foundation-7; HepG2, Human hepatocellular carcinoma; and HCT-116, Human colorectal carcinoma, were obtained from the Laboratory of Parasitology, Faculty of Medicine, Universitas Gadjah Mada Indonesia. The cells were cultured in DMEM (Dulbecco’s Modified Eagle’s Medium) (Gibco, Waltham, MA, USA) with 10% Fetal Bovine Serum (FBS, Gibco), 2% Sodium bicarbonate (NaHCO3, Gibco), and HEPES (4-2(2-hydroxyethyl)-1-piperazine ethane sulfonic acid) (Invitrogen). The cell lines were maintained at 37 °C in a humidified incubator containing 5% CO2. The IC50 values as µM were determined after 48-h of compounds incubations with the cells. The assays were determined as mean ± SD: Standard Deviation (n = 3) (p < 0.005, compared with the standard value).

HepG2 = test: MTT anti-proliferative assay, HepG2; type: cell-based, Human; conditions: read-out: IC50 ± SD, HepG2
Protocol: as §2

Aurora-B = molecular target: T2, Aurora-B (Homo sapiens, UniProt Q96GD4); test: Radiometric protein kinase assay, Aurora-B; type: biochemical
T2 construct: purchased Sigma-Aldrich
T2 sequence (Q96GD4 whole entry): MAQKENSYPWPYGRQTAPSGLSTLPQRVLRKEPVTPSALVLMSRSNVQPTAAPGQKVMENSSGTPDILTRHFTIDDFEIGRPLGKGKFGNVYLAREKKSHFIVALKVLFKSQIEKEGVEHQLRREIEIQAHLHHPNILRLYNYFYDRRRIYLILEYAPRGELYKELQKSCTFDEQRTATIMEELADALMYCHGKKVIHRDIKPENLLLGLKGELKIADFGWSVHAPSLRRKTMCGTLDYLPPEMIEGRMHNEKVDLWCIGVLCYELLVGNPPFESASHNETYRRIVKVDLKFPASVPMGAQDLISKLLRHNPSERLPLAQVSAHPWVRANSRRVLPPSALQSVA
Protocol: as §1

HCT-116 = test: MTT anti-proliferative assay, HCT-116; type: cell-based, Human; conditions: read-out: IC50 ± SD, HCT-116
Protocol: as §2

[1] = MTT assay, 48-h incubation, n = 3
[2] = radiometric kinase assay, 33P-ATP, average of three independent experiments, read-out: IC50 Values, Aurora-A
[3] = Homo sapiens, MCF7, MTT assay, 48-h incubation, n = 3
[4] = Homo sapiens, HepG2, MTT assay, 48-h incubation, n = 3
[5] = radiometric kinase assay, 33P-ATP, average of three independent experiments, read-out: IC50 Values, Aurora-B
[6] = Homo sapiens, HCT-116, MTT assay, 48-h incubation, n = 3

Q: For `COc1ccc(C2=C(c3ccc(OC)c(OC)c3)CN3CCCC3C2)cc1OC` (centres unmarked) [Compound 7, 6,7-Bis (3,4-dimethoxyphenyl)-1,2,3,5,8,8a-hexahydroindolizine], which IC50 (Aurora-A) is on record?
A: > 100 µM

Q: What about the IC50 (MCF-7; Homo sapiens, MCF7, 48 h) of the same molecule?
A: > 200 µM

Q: And the IC50 (HepG2; Homo sapiens, HepG2, 48 h)?
A: > 200 µM

Q: What about the IC50 (Aurora-B) of the same molecule?
A: > 100 µM

Q: And the IC50 (HCT-116; Homo sapiens, HCT-116, 48 h)?
A: > 200 µM

Q: Which results are given for `N.N.[Cl][Pt][Cl]` [Cisplatin, reference compound]?
A: IC50 (MCF-7; [1]): 5.7 ± 0.76 µM; IC50 (HepG2; [1]): 12.9 ± 0.91 µM; IC50 (HCT-116; [1]): 14.4 ± 1.69 µM

Q: For `COc1cc2c3c(c4cc(OC)c(OC)cc4c2cc1OC)CN1CCC[C@@H]1C3` [Compound 1, (-)-Tylophorine], which IC50 (Aurora-A) is on record?
A: 21.4 ± 1.24 µM

Q: And the IC50 (MCF-7; Homo sapiens, MCF7, 48 h)?
A: 126 µM

Q: What about the IC50 (HepG2; Homo sapiens, HepG2, 48 h) of the same molecule?
A: 40.1 ± 2.94 µM

Q: What about the IC50 (Aurora-B) of the same molecule?
A: 18.3 ± 1.32 µM

Q: What about the IC50 (HCT-116; Homo sapiens, HCT-116, 48 h) of the same molecule?
A: 142 ± 3.06 µM

Q: Which IC50 (Aurora-A; [2]) does the source give for `COc1ccc2c3c(c4cc(OC)c(OC)cc4c2c1)C[N+]1([O-])CCC[C@H]1[C@H]3O` (stereo partly drawn) [Compound 4, 3,6,7-trimethoxy-14α-hydroxy-phenanthroindolizidine-N-Oxide] here?
A: > 100 µM

Q: What about the IC50 (MCF-7; [3]) of the same molecule?
A: > 200 µM

Q: What about the IC50 (HepG2; [4]) of the same molecule?
A: 197 µM

Q: And the IC50 (Aurora-B; [5])?
A: > 100 µM

Q: What about the IC50 (HCT-116; [6]) of the same molecule?
A: > 200 µM

Q: What does the source list for `COC(=O)[C@]1(O)C[C@@H](O)[C@@H](O)[C@H](OC(=O)/C=C/c2ccc(O)c(O)c2)C1` [Compound 9, chlorogenic acid methyl ester]?
A: IC50 (MCF-7; [3]): > 200 µM; IC50 (HepG2; [4]): > 200 µM; IC50 (HCT-116; [6]): > 200 µM

Q: How did the IC50 (Aurora-A) turn out when `COc1ccc2c3c(c4cc(OC)c(OC)cc4c2c1)CN1CCC[C@H]1[C@@H]3O` [Compound 3, 3,6,7-trimethoxy-14α-hydroxy-phenanthroindolizidine] was run?
A: 4.1 ± 1.08 µM

Q: And the IC50 (MCF-7; Homo sapiens, MCF7, 48 h)?
A: 32 ± 2.64 µM

Q: What about the IC50 (HepG2; Homo sapiens, HepG2, 48 h) of the same molecule?
A: 23.8 ± 3.02 µM

Q: And the IC50 (Aurora-B)?
A: 3.6 ± 0.93 µM

Q: What about the IC50 (HCT-116; Homo sapiens, HCT-116, 48 h) of the same molecule?
A: 87 ± 3.08 µM

Q: Which results are given for `COc1ccc2c3c(c4cc(OC)c(O)cc4c2c1)C[N+]1([O-])CCCC1C3O` (stereo not drawn) [Compound 6, 14α-hydroxy-6-demethyltylophorinine N-Oxide]?
A: IC50 (Aurora-A; [2]): 2.6 ± 0.86 µM; IC50 (MCF-7; [3]): 12.2 ± 1.81 µM; IC50 (HepG2; [4]): 15.3 ± 2.04 µM; IC50 (Aurora-B; [5]): 6.5 ± 0.76 µM; IC50 (HCT-116; [6]): 65.6 ± 2.24 µM

Q: Which results are given for `COc1cc2c3c(c4cc(OC)c(OC)cc4c2cc1OC)[C@@H](O)[C@H]1CCCN1C3` [Compound 2, 2,3,6,7-tetramethoxy-14β-hydroxy-phenanthroindolizidine]?
A: IC50 (Aurora-A; [2]): 16.2 ± 1.43 µM; IC50 (MCF-7; [3]): 50.7 ± 2.86 µM; IC50 (HepG2; [4]): 35.3 ± 2.97 µM; IC50 (Aurora-B; [5]): 10.2 ± 1.21 µM; IC50 (HCT-116; [6]): 75.5 µM

Q: For `O=C(/C=C/c1ccc(O)c(O)c1)O[C@@H]1C[C@](O)(C(=O)O)C[C@@H](O)[C@H]1O` [Compound 8, chlorogenic acid], which IC50 (MCF-7; [3]) is on record?
A: 134 µM

Q: And the IC50 (HepG2; [4])?
A: 170 µM

Q: What about the IC50 (HCT-116; [6]) of the same molecule?
A: > 200 µM

Q: What does the source list for `COc1ccc2c3c(c4cc(OC)c(O)cc4c2c1)CN1CCC[C@H]1[C@H]3O` [Compound 5, 14α-hydroxy-6-demethyl Tylophorinine]?
A: IC50 (Aurora-A; [2]): 0.6 ± 0.72 µM; IC50 (MCF-7; [3]): 6.45 ± 2.06 µM; IC50 (HepG2; [4]): 4.77 ± 2.11 µM; IC50 (Aurora-B; [5]): 1.3 ± 0.58 µM; IC50 (HCT-116; [6]): 20.1 ± 1.94 µM
